This is an account of results in US20230270855A1, “Genetically Modified T-Cells and PI3K/AKT Inhibitors For Cancer Treatment” (The Research Foundation for The State of University New York, priority 2018, published 2023).

One experiment has as its system WT KPC pancreatic tumors. Briefly: Adoptive transfer of PI3K mutant-expressing T-cells plus BYL719 in tumor-bearing mice. It counts as in vivo. As to conditions: WT mice implanted with WT KPC cells. Here is the method: To test the anti-tumor efficacy of CTLKPC clones that express one or more PI3K p110α mutants, one or more PI3K p110δ mutants or combinations of PI3K p110α and p110δ mutants, respectively, in vivo, WT mice are implanted with 0.5 million WT KPC cells in the pancreas. After 2 weeks, the pancreatic tumors are well established and are quantified by IVIS imaging. […] Changes in tumor size are monitored by IVIS imaging and survival curves are constructed. Post-mortem examination is performed as described above for analyzing the pancreas. Tumor regression is observed only in the groups that receive adoptive transfer of PI3K mutant-expressing T-cells, plus concurrent treatment with the appropriate PI3K inhibitor.

Another experiment concerns the target Akt2W80A (Homo sapiens, UniProt P31751, W80A). As to conditions: previous studies; cited from earlier work.
A further experiment concerns the target Akt1W80A (Homo sapiens, UniProt P31749, W80A). Conditions: previous studies; cited from earlier work.

Akt2W80A, sequence (P31751 whole entry W80A): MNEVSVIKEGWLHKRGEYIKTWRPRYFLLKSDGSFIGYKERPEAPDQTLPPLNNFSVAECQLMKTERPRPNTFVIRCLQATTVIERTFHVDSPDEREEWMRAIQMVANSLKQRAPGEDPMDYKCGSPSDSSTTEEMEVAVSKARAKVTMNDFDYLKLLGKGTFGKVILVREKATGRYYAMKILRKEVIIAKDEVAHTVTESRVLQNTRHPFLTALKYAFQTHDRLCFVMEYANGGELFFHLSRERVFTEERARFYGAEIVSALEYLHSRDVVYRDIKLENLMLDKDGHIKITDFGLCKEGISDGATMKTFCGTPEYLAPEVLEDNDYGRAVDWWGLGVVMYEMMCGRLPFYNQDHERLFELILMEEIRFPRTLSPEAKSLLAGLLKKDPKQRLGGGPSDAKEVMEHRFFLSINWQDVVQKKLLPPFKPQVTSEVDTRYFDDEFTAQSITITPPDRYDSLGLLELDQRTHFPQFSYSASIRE
Akt1W80A, sequence (P31749 whole entry W80A): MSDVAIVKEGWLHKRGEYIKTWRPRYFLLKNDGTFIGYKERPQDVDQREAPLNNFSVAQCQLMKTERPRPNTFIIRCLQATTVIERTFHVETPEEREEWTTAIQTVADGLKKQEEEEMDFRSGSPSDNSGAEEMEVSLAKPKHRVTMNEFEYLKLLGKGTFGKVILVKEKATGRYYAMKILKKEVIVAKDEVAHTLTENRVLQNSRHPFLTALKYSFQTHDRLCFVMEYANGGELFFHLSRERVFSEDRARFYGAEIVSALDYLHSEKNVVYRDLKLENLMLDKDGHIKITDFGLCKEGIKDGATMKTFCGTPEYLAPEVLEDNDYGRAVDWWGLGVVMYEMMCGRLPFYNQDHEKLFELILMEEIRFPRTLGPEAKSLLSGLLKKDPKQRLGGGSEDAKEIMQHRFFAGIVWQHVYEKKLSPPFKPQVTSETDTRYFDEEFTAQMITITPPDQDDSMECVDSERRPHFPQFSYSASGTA

In the case of `Cc1nc(NC(=O)N2CCC[C@H]2C(N)=O)sc1-c1ccnc(C(C)(C)C(F)(F)F)c1` [BYL719], the survival entry in the experiment on WT KPC pancreatic tumors was “all die from pancreatic tumor progression”.
Consider `NC1(c2ccc(-c3nc4ccn5c(=O)[nH]nc5c4cc3-c3ccccc3)cc2)CCC1` [MK2206], for which, on Akt2W80A, the “inhibition of Akt2W80A mutant” value is given as “completely resistant”. Also, on Akt1W80A, the “inhibition of Akt1W80A mutant” value was “completely resistant”.
